Assay: Plasma pharmacokinetics
Type: in vivo, Sprague-Dawley rats
Details: rat plasma, any confection treatment (CDK, CHS, CMP)

Oc1cc(O)c2c(c1)OC(c1ccc(O)c(O)c1)C(O)C2 (racemic) [(±)-C, (±)-catechin]
Detection in plasma (HPLC-MS): No intact (±)-C, (±)-C/EC sulfated metabolites or unconjugated O-Me-(±)-C/EC metabolites were detected in the plasma

Oc1cc(O)c2c(c1)O[C@H](c1ccc(O)c(O)c1)[C@H](O)C2 (racemic) [(±)-EC, (−)-epicatechin]
Detection in plasma (HPLC-MS): minor component in blood
